# Reference: ChEMBL document CHEMBL1201862, “PubChem BioAssay data set” (2004)
#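 Dose response: 5 concentrations. Exposure: 48 h. Format: 96-well plates. Endpoint: linear interpolation; highest concentration if not reached. GI50 = concentration required for 50% inhibition of growth.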 The source made the active and inactive calls. No stated cut-off is given here; in the data, active = GI50 up to about 1.1 µM and inactive = higher.
# Experiments:
# Test in all cases: DTP human tumour cell line panel, 48 h
# BT-549 = test system: BT-549
# CAKI-1 = test system: CAKI-1
# COLO 205 = test system: COLO 205
# DU-145 = test system: DU-145
# HCT-15 = test system: HCT-15
# HL-60 = test system: HL-60
# HOP-92 = test system: HOP-92
# KM-20L2 = test system: KM-20L2
# Malme-3M = test system: Malme-3M
# NCI-H226 = test system: NCI-H226
# NCI-H23 = test system: NCI-H23
# NCI-H460 = test system: NCI-H460
# NCI-H522 = test system: NCI-H522
# OVCAR-5 = test system: OVCAR-5
# RXF 393 = test system: RXF 393
# SK-MEL-28 = test system: SK-MEL-28
# SK-MEL-5 = test system: SK-MEL-5
# SK-OV-3 = test system: SK-OV-3
# SW-620 = test system: SW-620
# UO-31 = test system: UO-31
SMILES,GI50 (BT-549),GI50 (CAKI-1),GI50 (COLO 205),GI50 (DU-145),GI50 (HCT-15) [µM],GI50 (HL-60),GI50 (HOP-92),GI50 (KM-20L2),GI50 (Malme-3M),GI50 (NCI-H226),GI50 (NCI-H23),GI50 (NCI-H460),GI50 (NCI-H522),GI50 (OVCAR-5),GI50 (RXF 393),GI50 (SK-MEL-28),GI50 (SK-MEL-5),GI50 (SK-OV-3),GI50 (SW-620),GI50 (UO-31)
N#CC(C#N)=C(N)/C(C#N)=C/c1cc(O)c(O)c(Br)c1,> 100 µM (inactive),> 100 µM (inactive),52.2 µM (inactive),97.5 µM (inactive),48.8,28.1 µM (inactive),46 µM (inactive),31.7 µM (inactive),85.7 µM (inactive),21.1 µM (inactive),> 100 µM (inactive),38.1 µM (inactive),40.5 µM (inactive),> 43.6 µM (inactive),> 100 µM (inactive),> 100 µM (inactive),60.3 µM (inactive),> 93.1 µM (inactive),51.6 µM (inactive),42.4 µM (inactive)
COC1(C)CNCC(C)(C)NC(=O)C(C)(OC)CNCC(C)(C)NC1=O (stereo not drawn),–,> 100 µM (inactive),> 100 µM (inactive),–,> 100,> 100 µM (inactive),> 100 µM (inactive),> 100 µM (inactive),> 100 µM (inactive),> 100 µM (inactive),> 100 µM (inactive),> 100 µM (inactive),> 100 µM (inactive),> 100 µM (inactive),> 100 µM (inactive),> 100 µM (inactive),> 100 µM (inactive),> 100 µM (inactive),49.4 µM (inactive),> 100 µM (inactive)
C1CN1c1nc(N2CC2)nc(N2CC2)n1,15.9 µM (inactive),2.19 µM (inactive),13.6 µM (inactive),2.78 µM (inactive),12.9,0.649 µM (active),10 µM (inactive),15.1 µM (inactive),11.7 µM (inactive),8.24 µM (inactive),2.73 µM (inactive),0.41 µM (active),5.21 µM (inactive),11.5 µM (inactive),6.78 µM (inactive),14.3 µM (inactive),6.19 µM (inactive),8.87 µM (inactive),11 µM (inactive),7.36 µM (inactive)
Nc1ncnc2c1ncn2C1OC(CSCc2ccc(Cl)cc2)C(O)C1O (stereo not drawn),–,21.5 µM (inactive),40.4 µM (inactive),–,12,23.8 µM (inactive),4.18 µM (inactive),9.55 µM (inactive),56.9 µM (inactive),–,24.2 µM (inactive),> 100 µM (inactive),–,> 100 µM (inactive),21.2 µM (inactive),–,33.8 µM (inactive),> 100 µM (inactive),31.8 µM (inactive),18.9 µM (inactive)
